Assay results from patent publication US10889595B2, “[1,3]thiazin-2-amine compound, application, and pharmaceutical composition” (TETRANOV PHARMACEUTICAL CO., LTD., priority 2016, dated 2021).

Each molecule was assayed against BACE1 (Homo sapiens (Human), UniProt P56817) (assay: Activity assay: inhibitory activity against the enzyme BACE1). Details: 10 doses, 3-fold serial dilution starting from 10 μmol/L, singlet.
BACE1, sequence (P56817 46-501): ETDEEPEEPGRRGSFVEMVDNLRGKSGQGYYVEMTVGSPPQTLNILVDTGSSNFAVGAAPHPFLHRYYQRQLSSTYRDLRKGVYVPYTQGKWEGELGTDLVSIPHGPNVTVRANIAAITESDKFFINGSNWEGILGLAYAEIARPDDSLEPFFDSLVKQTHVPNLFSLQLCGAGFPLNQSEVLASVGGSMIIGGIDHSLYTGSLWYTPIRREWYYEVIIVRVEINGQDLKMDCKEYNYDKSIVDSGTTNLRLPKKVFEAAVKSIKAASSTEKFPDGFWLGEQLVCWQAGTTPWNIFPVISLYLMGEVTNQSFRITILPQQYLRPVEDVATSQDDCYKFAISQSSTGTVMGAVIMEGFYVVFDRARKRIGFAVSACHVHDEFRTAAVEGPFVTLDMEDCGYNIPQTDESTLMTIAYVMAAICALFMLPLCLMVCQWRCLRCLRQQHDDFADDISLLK
Type: biochemical
Protocol: The activity assay for the compound of each example was carried out in this experimental example, and the detailed test method was as follows:
1. The test compound was formulated as […] solution in dimethylsulfoxide;
2. Starting from 10 μmol/L, by 3-fold serial dilution, the inhibitory activity of each compound against the enzyme was tested in singlet state at 10 doses;
3. IC50 values of test compounds were finally obtained.
An IC50 of 5870 nM was found for `C[C@H]1C[C@@]2(F)CSC(N)=N[C@@]2(c2cc(N)ccc2F)CO1` [Example 7, (4aS,6S,8aS)-8a-(5-amino-2-fluorophenyl)-4a-fluoro-6-methyl-4,4a,5,6,8,8a-hexahydropyrano[3,4-d][1,3]thiazin-2-amine] in this work. An IC50 of 172 nM was found for `C[C@H]1C[C@@]2(F)CSC(N)=N[C@@]2(c2cc(NC(=O)c3ccc(Cl)cn3)ccc2F)CO1` [Example 11, N-(3-((4aS,6S,8aS)-2-amino-4a-fluoro-6-methyl-4,4a,5,6,8,8a-hexahydropyrano[3,4-d][1,3]thiazin-8a-yl)-4-fluorophenyl)-5-chloropicolinamide] in this work. An IC50 of 150 nM was found for `COc1cnc(C(=O)Nc2ccc(F)c([C@]34CO[C@@H](C)C[C@@]3(F)CSC(N)=N4)c2)cn1` [Example 12] in this work. An IC50 of 130 nM was found for `COc1cnc(C(=O)Nc2cccc([C@]34CO[C@@H](C)C[C@@]3(F)CSC(N)=N4)c2)cn1` [Example 14, N-(3-((4aS,6S,8aS)-2-amino-4a-fluoro-6-methyl-4,4a,5,6,8,8a-hexahydropyrano[3,4-d][1,3]thiazin-8a-yl)phenyl)-5-methoxypyrazin-2-carboxamide] in this work. An IC50 of 225 nM was found for `Cc1cnc(C(=O)Nc2cccc([C@]34CO[C@@H](C)C[C@@]3(F)CSC(N)=N4)c2)cn1` [Example 15, N-(3-((4aS,6S,8aS)-2-amino-4a-fluoro-6-methyl-4,4a,5,6,8,8a-hexahydropyrano[3,4-d][1,3]thiazin-8a-yl)phenyl)-5-methylpyrazin-2-carboxamide] in this work.
